Results from US8124624B2, “Substituted sulfonamide compounds” (Gruenenthal GmbH, priority 2008, dated 2012).

How the values were obtained:
human B1R = molecular target: T1, human B1R (Homo sapiens, UniProt P46663); assay: FLIPR Ca2+ influx assay, B1R antagonism, human (hB1R CHO K1 cells); format: cell-based; details: test substance 10 μM, CHO K1 cells stably transfected with human B1R, agonist Lys-Des-Arg9-bradykinin at EC80, % inhibition compared with maximum achievable inhibition; for inhibition at 10 µM: read-out: B1R antagonism, human [10 μM] % inhibition
T1 construct: expressed in transfected cells; host or cells: CHO K1 cells (hB1R cells)
T1 sequence (P46663 1-353): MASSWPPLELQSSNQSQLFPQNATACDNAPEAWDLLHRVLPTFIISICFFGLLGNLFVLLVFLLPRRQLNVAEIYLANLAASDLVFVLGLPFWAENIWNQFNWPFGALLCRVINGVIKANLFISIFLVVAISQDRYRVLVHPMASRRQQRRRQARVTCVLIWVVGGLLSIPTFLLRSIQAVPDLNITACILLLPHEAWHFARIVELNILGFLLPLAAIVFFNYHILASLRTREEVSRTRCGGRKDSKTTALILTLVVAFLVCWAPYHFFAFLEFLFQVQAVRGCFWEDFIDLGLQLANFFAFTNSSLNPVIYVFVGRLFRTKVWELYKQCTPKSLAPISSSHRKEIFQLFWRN
Procedure: The agonistic or antagonistic action of substances can be quantified on the bradykinin receptor 1 (B1R) of the species human and rat using ectopically expressing cell lines (CHO K1 cells) and with the aid of a Ca^2+-sensitive dye (Fluo-4) using a fluorescent imaging plate reader (FLIPR). The indication in % activation is based on the Ca^2+ signal after addition of Lys-Des-Arg^9-bradykinin (0.5 nM) or Des-Arg^9-bradykinin (100 nM). Antagonists lead to suppression of the Ca^2+ influx after the addition of the agonist. % Inhibition compared with the maximum achievable inhibition is indicated.
The agonistic or antagonistic action of substances can be determined on the bradykinin receptor 1 (B1R) of the species human and rat using the following assay. According to this assay, the Ca^2+ influx through the channel is quantified with the aid of a Ca^2+-sensitive dye (Fluo-4 type, Molecular Probes Europe BV, Leiden, Netherlands) using a Fluorescent Imaging Plate Reader (FLIPR, Molecular Devices, Sunnyvale, USA).
Chinese hamster ovary cells (CHO K1 cells) which have been stably transfected with the human B1R gene (hB1R cells) or with the B1R gene of the rat (rB1R cells) are used. For functional studies, the cells are plated out on black 96-well plates having a clear base (BD Biosciences, Heidelberg, Germany or Greiner, Frickenhausen, Germany) in a density of 20,000-35,000 cells/well. The cells are incubated overnight at 37° C. and with 5% CO2 in culture medium (hB1R cells: Nutrient Mixture Ham's F12, Gibco Invitrogen GmbH, Karlsruhe, Germany or DMEM, Sigma-Aldrich, Taufkirchen, Germany; rB1R cells: D-MEM/F12, Gibco Invitrogen GmbH, Karlsruhe, Germany), with 10 vol. % FBS (fetal bovine serum, Gibco Invitrogen GmbH, Karlsruhe, Germany or PAN Biotech GmbH, Aidenbach, Germany).
On the following day, the cells are loaded for 60 minutes at 37° C. with 2.13 μM Fluo-4 (Molecular Probes Europe BV, Leiden, Netherlands) in HBSS buffer (Hank's buffered saline solution, Gibco Invitrogen GmbH, Karlsruhe, Germany) […] (Sigma-Aldrich, Taufkirchen, Germany) and 10 mM HEPES (Sigma-Aldrich, Taufkirchen, Germany). The plates are then washed twice with HBSS buffer, and HBSS buffer additionally containing 0.1% BSA (bovine serum albumin; Sigma-Aldrich, Taufkirchen, Germany), 5.6 mM glucose and 0.05% gelatin (Merck KGaA, Darmstadt, Germany) is added to the plates. After incubation for a further 20 minutes at room temperature, the plates are inserted into the FLIPR for Ca^2+ measurement.
Alternatively, washing is carried out with buffer A (15 mM HEPES, 80 mM NaCl, 5 mM KCl, 1.2 mM CaCl2, 0.7 mM MgSO4, 2 g/l glucose, 2.5 mM probenecid) followed by loading with buffer A with added 2.5 μM Fluo-4 and 0.025% Pluronic F127 (Sigma-Aldrich, Taufkirchen, Germany). The cells are then washed twice with buffer A and incubated for 30 minutes at room temperature with buffer A additionally containing 0.05% BSA and 0.05% gelatin and are then inserted into the FLIPR for Ca^2+ measurement.
The Ca^2+-dependent fluorescence is measured before and after the addition of substances (λex=488 nm, λem=540 nm). Quantification is carried out by measuring the highest fluorescence intensity (FC, fluorescence counts) over time.
The FLIPR protocol consists of two substance additions. Test substances (10 μM) are first pipetted onto the cells and the Ca^2+ influx is compared with the control (hB1R: Lys-Des-Arg^9-bradykinin >=50 nM; rB1R: Des-Arg^9-bradykinin 10 μM). This gives the activation in %, based on the Ca^2+ signal after addition of Lys-Des-Arg^9-bradykinin (>=50 nM) or Des-Arg^9-bradykinin (10 μM). After 10-20 minutes' incubation, Lys-Des-Arg^9-bradykinin (hB1R) or Des-Arg^9-bradykinin (rB1R) is applied in the concentration of the EC80, and the influx of Ca^2+ is likewise determined. Antagonists lead to suppression of the Ca^2+ influx. The % inhibition compared with the maximum achievable inhibition is calculated. […]

B1R of the rat = molecular target: T2, B1R of the rat (Rattus norvegicus, UniProt P97583); assay: FLIPR Ca2+ influx assay, B1R antagonism, rat (rB1R CHO K1 cells); format: cell-based; details: test substance 10 μM, CHO K1 cells stably transfected with rat B1R, agonist Des-Arg9-bradykinin at EC80, % inhibition compared with maximum achievable inhibition; for inhibition at 10 µM: read-out: B1R antagonism, rat [10 μM] % inhibition
T2 construct: expressed in transfected cells; host or cells: CHO K1 cells (rB1R cells)
T2 sequence (P97583 1-337): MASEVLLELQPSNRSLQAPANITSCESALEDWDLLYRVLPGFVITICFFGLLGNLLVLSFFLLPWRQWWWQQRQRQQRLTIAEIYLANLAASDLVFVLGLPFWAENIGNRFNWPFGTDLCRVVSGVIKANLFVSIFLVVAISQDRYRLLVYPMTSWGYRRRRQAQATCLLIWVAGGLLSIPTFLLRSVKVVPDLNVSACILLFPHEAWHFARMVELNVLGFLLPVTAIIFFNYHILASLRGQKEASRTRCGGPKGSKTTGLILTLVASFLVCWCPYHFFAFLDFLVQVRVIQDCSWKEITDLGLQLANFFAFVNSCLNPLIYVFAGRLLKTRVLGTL
In short: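 CHO K1 cells stably expressing human or rat B1R were loaded with Fluo-4, and Ca^2+ fluorescence was read on a FLIPR. After 10–20 min with test substance, agonist was added at EC80: Lys-Des-Arg^9-bradykinin for hB1R, Des-Arg^9-bradykinin for rB1R. % inhibition is relative to maximal inhibition; IC50 from multiple concentrations, n=2–3, N≥2.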

| Compound | inhibition at 10 µM (human B1R) | inhibition at 10 µM (B1R of the rat) | B1R antagonism, human [10 μM] % inhibition (human B1R) | B1R antagonism, rat [10 μM] % inhibition (B1R of the rat) |
| --- | --- | --- | --- | --- |
| Cc1cc(S(=O)(=O)N2CCCCC2CCC(=O)N2CCC(CCN3CCCC3)(c3cccnc3)CC2)c(C)cc1Cl (centres unmarked) [Example 5, 3-(1-(4-Chloro-2,5-dimethylphenylsulfonyl)piperidin-2-yl)-1-(4-(pyridin-3-yl)-4-(2-(pyrrolidin-1-yl)ethyl)piperidin-1-yl)propan-1-one] | 101% | 61% | – | – |
| COc1cc(C)c(S(=O)(=O)N(C)CCOCC(=O)N2CCC(CCN(C)C)(c3cccnc3)CC2)c(C)c1 [Example 9, N-(2-(2-(4-(2-(Dimethylamino)ethyl)-4-(pyridin-3-yl)piperidin-1-yl)-2-oxoethoxy)ethyl)-4-methoxy-N,2,6-trimethylbenzenesulfonamide] | 104% | 102% | – | – |
| COc1cc(C)c(S(=O)(=O)N2CCCCC2COCC(=O)N2CCC(CCN(C)C)(c3cccnc3)CC2)c(C)c1 (centres unmarked) [Example 8, 1-(4-(2-(Dimethylamino)ethyl)-4-(pyridin-3-yl)piperidin-1-yl)-2-((1-(4-methoxy-2,6-dimethylphenylsulfonyl)piperidin-2-yl)methoxy)ethanone] | 104% | 102% | – | – |
| CN(C)CCC1(c2cccnc2)CCN(C(=O)COCC2CCc3ccccc3N2S(=O)(=O)c2ccc(Cl)c(Cl)c2)CC1 (centres unmarked) [Example 12, 2-((1-(3,4-Dichlorophenylsulfonyl)-1,2,3,4-tetrahydroquinolin-2-yl)methoxy)-1-(4-(2-(dimethylamino)ethyl)-4-(pyridin-3-yl)piperidin-1-yl)ethanone] | 103% | 90% | – | – |
| O=C(CC(NS(=O)(=O)c1ccc2ccccc2c1)c1ccccc1)N1CCC(CCN2CCCC2)(c2cccnc2)CC1 (centres unmarked) [Example 1, N-(3-Oxo-1-phenyl-3-(4-(pyridin-3-yl)-4-(2-(pyrrolidin-1-yl)ethyl)piperidin-1-yl)propyl)naphthalene-2-sulfonamide] | 104% | 63% | – | – |
| CN(C)CCC1(c2cccnc2)CCN(C(=O)CC2CCCCN2S(=O)(=O)c2cccc(C(F)(F)F)c2)CC1 (centres unmarked) [Example 10, 1-(4-(2-(Dimethylamino)ethyl)-4-(pyridin-3-yl)piperidin-1-yl)-2-(1-(3-(trifluoromethyl)phenylsulfonyl)piperidin-2-yl)ethanone] | 103% | 65% | – | – |

Results, then the molecule that gave them:

| inhibition at 10 µM (human B1R) | inhibition at 10 µM (B1R of the rat) | B1R antagonism, human [10 μM] % inhibition (human B1R) | B1R antagonism, rat [10 μM] % inhibition (B1R of the rat) | Compound |
| --- | --- | --- | --- | --- |
| 100% | 103% | – | – | COc1cc(C)c(S(=O)(=O)N(CCOCC(=O)N2CCC(CCCN3CCCC3)(c3cccnc3)CC2)Cc2cnc3ccccc3c2)c(C)c1 [Example 71, 4-Methoxy-2,6-Dimethyl-N-[2-[2-oxo-2-[4-pyridin-3-yl-4-(3-pyrrolidin-1-yl-propyl)-piperidin-1-yl]-ethoxy]-ethyl]-N-(quinolin-3-yl-methyl)-benzenesulfonic acid amide] |
| – | – | 100% | 101% | COc1cc(C)c(S(=O)(=O)N(C)CCOCC(=O)N2CCC(CCCN3CCCC3)(c3cccnc3)CC2)c(C)c1 [Example 29, 4-Methoxy-N,2,6-trimethyl-N-[2-[2-oxo-2-[4-pyridin-3-yl-4-(3-pyrrolidin-1-yl-propyl)-piperidin-1-yl]-ethoxy]-ethyl]-benzenesulfonic acid amide] |
| 100% | 103% | – | – | Cc1cccc(Cl)c1S(=O)(=O)N(CCOCC(=O)N1CCC(CCCN2CCCC2)(c2cccc(F)c2)CC1)C1CC1 [Example 79, 2-Chloro-N-cyclopropyl-N-[2-[2-[4-(3-fluorophenyl)-4-(3-pyrrolidin-1-yl-propyl)-piperidin-1-yl]-2-oxo-ethoxy]-ethyl]-6-methyl-benzenesulfonic acid amide] |
| 82% | 98% | – | – | Cc1cc(S(=O)(=O)N2CCCCC2CCC(=O)N2CCC(CCCN(C)C)(c3cccnc3)CC2)c(C)cc1Cl (centres unmarked) [Example 19, 3-(1-(4-Chloro-2,5-dimethylphenylsulfonyl)piperidin-2-yl)-1-(4-(3-(dimethylamino)propyl)-4-(pyridin-3-yl)piperidin-1-yl)propan-1-one] |
| 100% | – | – | 93% | O=C(COCC1COc2ccccc2N1S(=O)(=O)c1ccccc1C(F)(F)F)N1CCC(CCCN2CCCC2)(c2cccnc2)CC1 (centres unmarked) [Example 74, 1-[4-Pyridin-3-yl-4-(3-pyrrolidin-1-yl-propyl)-piperidin-1-yl]-2-[[4-[[2-(trifluoromethyl)-phenyl]sulfonyl]-3,4-dihydro-2H-[1,4]benzoxazin-3-yl]-methoxy]-ethanone] |
| – | – | 100% | 103% | COc1cc(C)c(S(=O)(=O)N2CCCCC2COCC(=O)N2CCC(CCCN3CCCC3)(c3cccnc3)CC2)c(C)c1 (centres unmarked) [Example 26, 2-[[1-[(4-Methoxy-2,6-dimethyl-phenyl)sulfonyl]-piperidin-2-yl]-methoxy]-1-[4-pyridin-3-yl-4-(3-pyrrolidin-1-yl-propyl)-piperidin-1-yl]-ethanone] |
| 62% | 102% | – | – | O=C(COCC1CCc2ccccc2N1S(=O)(=O)c1ccc(Cl)c(Cl)c1)N1CCC(CCCN2CCCC2)(c2cccnc2)CC1 (centres unmarked) [Example 18, 2-((1-(3,4-Dichlorophenylsulfonyl)-1,2,3,4-tetrahydroquinolin-2-yl)methoxy)-1-(4-(pyridin-3-yl)-4-(3-(pyrrolidin-1-yl)propyl)piperidin-1-yl)ethanone] |
